Tests used:
[1] = tested on: patients with mild to moderate hypertension; test: Example 19 clinical study: eplerenone versus placebo co-administered with a calcium-channel blocker; format: in vivo, human
From the text: This multicenter, randomized, double-blind, placebo-controlled, placebo run-in, parallel group trial involving a minimum of 120 randomized patients with hypertension (seated diastolic blood pressure [seDBP]≧95 mmHg and <110 mmHg and seated systolic BP [seSBP]<180 mmHg while taking a CCB) will consist of a one- to two-week pretreatment screening period followed by a two- to four-week single-blind placebo run-in period and an 8-week double-blind treatment period. Eligible patients will be patients currently receiving a CCB as part of their antihypertensive medication. […] The dose will not be changed for patients with adequate BP control. […] If the dose has been increased at Week 2, the patient will be reassessed at Week 6. […] If BP is uncontrolled at Week 6 and the dose has been increased at Week 2 or Week 4, the patient must be withdrawn from the study. If symptomatic hypotension (i.e., lightheadedness, dizziness, or syncope associated with low BP) occurs at any time during the study, or if DBP is ≧110 mmHg or SBP is ≧180 mmHg at any time during the trial, the patient must be withdrawn. Patients will receive study medication for a total of 8 weeks.
Patients will return to the clinic for evaluations at Weeks 0 (baseline), 2, 4, 6, 8, and 9. Heart rate, BP, adverse events and concomitant medication will be assessed at each visit. Hematology and biochemistry evaluations and urinalysis for safety will be at Weeks 0, 8, and 9. Serum potassium levels will be determined at Weeks 0 (baseline), 2, 4, 6, 8, and 9. Plasma renin, serum aldosterone, and plasma cortisol will be determined at Weeks 0 and 8. A 12-lead electrocardiogram and physical examination will be done at screening and at Week 9.
The study will consist of a one- to two-week pretreatment screening period followed by a two- to four-week single-blind placebo run-in treatment period, prior to randomization to an eight-week double-blind treatment period.
Eligible patients will be either currently receiving a CCB alone, or receiving a CCB as part of their antihypertensive medication. […] The dose will not be changed for patients with adequate BP control. […] If the dose has been increased at Week 2, the patient will be reassessed at Week-6. The dose of study medication will not be changed for patients with adequate BP control. […] If BP is uncontrolled at Week 6 and the dose has been increased at Week 2 or Week 4, the patient must be withdrawn from the study. The dose of study medication will not be changed for patients with adequate BP control. If symptomatic hypotension (i.e., lightheadedness, dizziness, or syncope associated with low BP) occurs at any time during the study, or if DBP is ≧110 mmHg or SBP is ≧180 mmHg at any time during the study, the patient must be withdrawn. Patients will receive study medication for a total of eight weeks.
Patients will return to the clinic for evaluations at Weeks 0, 2, 4, 6, 8, and 9. Heart rate, BP, adverse events and concomitant medication will be assessed at each visit. Hematology and biochemistry evaluations and urinalysis for safety will be at Weeks 0, 8, and 9. Serum potassium levels will be determined at Weeks 0, 2, 4, 6, 8, and 9. Plasma renin, serum aldosterone, and plasma cortisol will be determined at Weeks 0 and 8. […]
BP evaluations will be analyzed at each visit using two-way analysis of covariance (ANCOVA) with the baseline measurement as the covariate and treatment and center as factors. […]

hypertensive rats = test: Assay C: hypertensive rat model (renal artery clip); format: in vivo; conditions: combination of beta-adrenergic antagonist and eplerenone versus either component alone, after 12 to 24 weeks
From the text: Assay “C”: Hypertensive Rat Model Male rats are made hypertensive by placing a silver clip with an aperture of 240 microns on the left renal artery, leaving the contralateral kidney untouched. Sham controls undergo the same procedure but without attachment of the clip. One week prior to the surgery, animals to be made hypertensive are divided into separate groups and drug treatment is begun. […] After 12 to 24 weeks, systolic and diastolic blood pressure, left ventricular end diastolic pressure, left ventricular dP/dt, and heart rate are evaluated. The hearts are removed, weight, measured and fixed in formalin. Collagen content of heart sections are evaluated using computerized image analysis of picrosirius stained sections.

[2] = tested on: rats with coronary artery ligation; test: Assay D: myocardial infarction rat model; format: in vivo; conditions: combination of beta-adrenergic antagonist and eplerenone versus either component alone, after six weeks
From the text: Assay “D” Myocardial Infarction Rat Model: male rats are anesthetized and the heart is exteriorized following a left sided thoracotomy. The left anterior descending coronary artery is ligated with a suture. The thorax is closed and the animal recovers. Sham animals have the suture passed through without ligation. One week prior to the surgery, animals to undergo infraction are divided into separate groups and drug treatment is begun. […] After six weeks, systolic and diastolic blood pressure, left ventricular end diastolic pressure, left ventricular dP/dt, and heart rate are evaluated. The hearts are removed, weight, measured and fixed in formalin. Collagen content of heart sections are evaluated using computerized image analysis of picrosirius stained sections.

animal models = conditions: cited from earlier work
[3] = eplerenone plus CCB compared to CCB and placebo

Row | SMILES | systolic blood pressure ([1]; eplerenone 50-100 mg plus fixed dose CCB versus CCB plus placebo, eight weeks) | serious adverse events ([1]; eplerenone added to CCB therapy) | active renin levels [1, 3] | aldosterone levels [1, 3] | change in mean diastolic blood pressure ([1]; eplerenone plus CCB versus CCB plus placebo, eight weeks) | cardiac performance (hypertensive rats) | cardiac performance [2] | myocardial fibrosis (animal models; D. Klug et al 1993) | fibrosis (animal models; irrespective of left ventricular hypertrophy and hypertension, C. G. Brilla et al 1993)
1 | COC(=O)[C@@H]1CC2=CC(=O)CC[C@]2(C)[C@@]23O[C@@H]2C[C@@]2(C)[C@@H](CC[C@@]24CCC(=O)O4)[C@H]13 [eplerenone, Pregn-4-ene-7,21-dicarboxylic acid, 9,11-epoxy-17-hydroxy-3-oxo-,γ-lactone, methyl ester, (7α,11α,17β)-] | significant reduction | no serious adverse events | greater increase | greater increase | greater for the dual therapy group, compared to monotherapy, but this difference did not reach statistical significance | improvements in cardiac performance | improvements in cardiac performance |  | 
2 | CC(=O)S[C@@H]1CC2=CC(=O)CC[C@]2(C)[C@H]2CC[C@@]3(C)[C@@H](CC[C@@]34CCC(=O)O4)[C@H]12 [spironolactone] |  |  |  |  |  |  |  | prevents myocardial fibrosis | prevent fibrosis

Source: US20040235809A1, “Epoxy steroidal aldosterone antagonist and beta-adremergic antagonist combination therepy for treatment of congestive heart failure” (priority 2000, published 2004)
